Assay results reported in ChEMBL document CHEMBL1201862, “PubChem BioAssay data set” (2004).
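Interpolation was linear, between the two tested concentrations surrounding the appropriate level; five concentrations were tested over 48 hours in 96-well plates. Abbreviation: GI50, concentration required for 50% inhibition of growth.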 Active and inactive are the calls of the source. Cut-off read from the data, not from the text of the source: active = GI50 up to about 1.1 µM and inactive = higher.

Tests used:
Test in all cases: inhibition of tumour cell growth, NCI panel, 48 h
[1] = tested on: NCI-H226
[2] = tested on: LOX IMVI
[3] = tested on: RXF 393
[4] = tested on: PC-3
[5] = tested on: SF-268
[6] = tested on: DU-145
[7] = tested on: U-251
[8] = tested on: TK-10
[9] = tested on: K562
[10] = tested on: T47D
[11] = tested on: SNB-75
[12] = tested on: MDA-MB-231
[13] = tested on: NCI-H460
[14] = tested on: IGROV-1
[15] = tested on: CCRF-CEM
[16] = tested on: HOP-92
[17] = tested on: HCT-15
[18] = tested on: SW-620
[19] = tested on: A549
[20] = tested on: M14
[21] = tested on: HCT-116
[22] = tested on: HT-29
[23] = tested on: A498
[24] = tested on: SK-OV-3
[25] = tested on: UACC-257
[26] = tested on: CAKI-1
[27] = tested on: MOLT-4
[28] = tested on: EKVX
[29] = tested on: Malme-3M
[30] = tested on: SK-MEL-5
[31] = tested on: SNB-19
[32] = tested on: MDA-N
[33] = tested on: 786-0
[34] = tested on: COLO 205
[35] = tested on: BT-549
[36] = tested on: MDA-MB-435
[37] = tested on: OVCAR-5
[38] = tested on: Hs-578T
[39] = tested on: OVCAR-8
[40] = tested on: HCC 2998
[41] = tested on: SF-295
[42] = tested on: MCF7
[43] = tested on: OVCAR-3
[44] = tested on: UO-31
[45] = tested on: ACHN
[46] = tested on: UACC-62
[47] = tested on: SN12C
[48] = tested on: SK-MEL-28
[49] = tested on: NCI-H23
[50] = tested on: NCI-H522
[51] = tested on: HL-60
[52] = tested on: HOP-62
[53] = tested on: KM12
[54] = tested on: SF-539
[55] = tested on: NCI/ADR-RES

## CC(C)OP(=O)(OC(C)C)C(C(C)C)N(C)/C(F)=N/C(F)(F)F (stereo not given)
[1]
  GI50: > 100 µM (inactive)
[2]
  GI50: > 100 µM (inactive)
[3]
  GI50: > 100 µM (inactive)
[4]
  GI50: > 100 µM (inactive)
[5]
  GI50: > 100 µM (inactive)
[6]
  GI50: > 100 µM (inactive)
[7]
  GI50: > 100 µM (inactive)
[8]
  GI50: > 100 µM (inactive)
[9]
  GI50: 60.5 µM (inactive)
[10]
  GI50: > 100 µM (inactive)
[11]
  GI50: > 100 µM (inactive)
[12]
  GI50: > 100 µM (inactive)
[13]
  GI50: > 100 µM (inactive)
[14]
  GI50: > 100 µM (inactive)
[15]
  GI50: > 100 µM (inactive)
[16]
  GI50: > 100 µM (inactive)
[17]
  GI50: > 100 µM
[18]
  GI50: > 100 µM (inactive)
[19]
  GI50: > 100 µM (inactive)
[20]
  GI50: > 100 µM (inactive)
[21]
  GI50: > 100 µM (inactive)
[22]
  GI50: > 100 µM (inactive)
[23]
  GI50: > 100 µM (inactive)
[24]
  GI50: > 100 µM (inactive)
[25]
  GI50: > 100 µM (inactive)
[26]
  GI50: > 100 µM (inactive)
[27]
  GI50: 75.7 µM (inactive)
[28]
  GI50: > 100 µM (inactive)
[29]
  GI50: > 100 µM (inactive)
[30]
  GI50: > 100 µM (inactive)
[31]
  GI50: > 100 µM (inactive)
[32]
  GI50: > 100 µM (inactive)
[33]
  GI50: > 100 µM (inactive)
[34]
  GI50: > 100 µM (inactive)
[35]
  GI50: > 100 µM (inactive)
[36]
  GI50: > 100 µM (inactive)
[37]
  GI50: > 100 µM (inactive)
[38]
  GI50: > 100 µM (inactive)
[39]
  GI50: > 100 µM (inactive)
[40]
  GI50: > 100 µM (inactive)
[41]
  GI50: > 100 µM (inactive)
[42]
  GI50: > 100 µM (inactive)
[43]
  GI50: > 100 µM (inactive)
[44]
  GI50: > 100 µM (inactive)
[45]
  GI50: > 100 µM (inactive)
[46]
  GI50: > 100 µM (inactive)
[47]
  GI50: > 100 µM (inactive)
[48]
  GI50: > 100 µM (inactive)
[49]
  GI50: > 100 µM (inactive)
[50]
  GI50: > 100 µM (inactive)
[51]
  GI50: 31 µM (inactive)
[52]
  GI50: > 100 µM (inactive)
[53]
  GI50: > 100 µM (inactive)
[54]
  GI50: > 100 µM (inactive)
[55]
  GI50: > 100 µM (inactive)
